Experimental findings from PubChem BioAssay (NCI) are described below.

Test systems include HT29 colon; HCC-2998 colon; HCT-116 colon; MDA-MB-231 breast; SR leukemia; NCI/ADR-RES ovarian; SK-MEL-28 melanoma; OVCAR-8 ovarian; MCF7 breast; COLO 205 colon.
What all share (assay): NCI-60 cell line screen, 48 h

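Method: 48-hour compound exposure of cells in 96-well plates, five concentrations, linear interpolation of endpoints. GI50 marks 50% less growth. Definition used: TGI = concentration required for complete inhibition of growth.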

As to `CCN1/C(=C\c2cc[n+](CC)c3ccccc23)C=Cc2ccccc21`, the GI50 in the experiment on HT29 colon is 0.202 µM; with HCC-2998 colon, 0.141 µM; in the experiment with HCT-116 colon, 0.124 µM; with MDA-MB-231 breast, 0.273 µM; in the experiment on SR leukemia, 0.152 µM; in the experiment on NCI/ADR-RES ovarian, 13.8 µM. Moreover, the GI50 is 0.275 µM in the experiment on SK-MEL-28 melanoma, 0.23 µM in the experiment on OVCAR-8 ovarian, 0.114 µM in the experiment with MCF7 breast and 0.102 µM in the experiment with COLO 205 colon. Besides, the TGI in the experiment on HT29 colon was 10.8 µM; with HCC-2998 colon, 2.61 µM; in the experiment on HCT-116 colon, 10.3 µM; in the experiment with MDA-MB-231 breast, 10.2 µM; in the experiment on SR leukemia, 4.86 µM; in the experiment with NCI/ADR-RES ovarian it was 46.2 µM. Moreover, the TGI stood at 2.33 µM with SK-MEL-28 melanoma, 13 µM in the experiment with OVCAR-8 ovarian, 1.85 µM in the experiment on MCF7 breast and 0.32 µM in the experiment on COLO 205 colon.
As for `COc1ccc2c(c1)sc1nc(-c3ccccc3)c(-c3cccc4ccccc34)n12`, the GI50 with HT29 colon was 0.353 µM; in the experiment with HCC-2998 colon it was 1.53 µM; with HCT-116 colon it was 0.615 µM; in the experiment with MDA-MB-231 breast, 1.32 µM; in the experiment on SR leukemia it was 0.323 µM; in the experiment on NCI/ADR-RES ovarian, 0.47 µM. For the same molecule, the GI50 in the experiment on SK-MEL-28 melanoma was 0.417 µM; in the experiment with OVCAR-8 ovarian, 0.771 µM; in the experiment on MCF7 breast, 0.835 µM; in the experiment with COLO 205 colon, 0.292 µM. Further, the TGI in the experiment on HT29 colon was 4.38 µM; in the experiment on HCC-2998 colon, 36.6 µM; with HCT-116 colon, > 100 µM; in the experiment on MDA-MB-231 breast it was > 100 µM; in the experiment on SR leukemia, > 100 µM; with NCI/ADR-RES ovarian, > 100 µM. In addition, the TGI is > 100 µM with SK-MEL-28 melanoma, > 100 µM in the experiment with OVCAR-8 ovarian, > 33.4 µM with MCF7 breast and 0.855 µM with COLO 205 colon.
As to `CC(C)=CCC\C(C)=C/C=C/C(C)=C\C=C\C(C)=C/C=C/C=C(C)\C=C\C=C(C)/C=C/C=C(/C)CCC=C(C)C`, the TGI in the experiment with HT29 colon, in the experiment on HCC-2998 colon, in the experiment on HCT-116 colon, in the experiment on MDA-MB-231 breast, in the experiment on SR leukemia and with NCI/ADR-RES ovarian was > 100 µM throughout. Moreover, the TGI in the experiment on SK-MEL-28 melanoma, in the experiment with OVCAR-8 ovarian, in the experiment with MCF7 breast and with COLO 205 colon was > 100 µM each time.
As for `O=C1NC(=NCCc2cccc(F)c2)S/C1=C\c1ccc2ncccc2c1`, the GI50 with HT29 colon is 1.05 µM; in the experiment with HCC-2998 colon it was > 25 µM; with HCT-116 colon, 1.3 µM; in the experiment with MDA-MB-231 breast, > 25 µM; in the experiment on SR leukemia it was 0.121 µM; in the experiment on NCI/ADR-RES ovarian, 10.8 µM. Besides, the GI50 in the experiment with SK-MEL-28 melanoma is > 21.4 µM; in the experiment with OVCAR-8 ovarian, 12.8 µM; with MCF7 breast it was 0.766 µM; in the experiment with COLO 205 colon, 1.43 µM. Also, the TGI in the experiment on HT29 colon, in the experiment with HCC-2998 colon, in the experiment on HCT-116 colon, in the experiment on MDA-MB-231 breast, in the experiment with SR leukemia and with NCI/ADR-RES ovarian was > 25 µM in each case. Besides, the TGI with SK-MEL-28 melanoma, in the experiment with OVCAR-8 ovarian, in the experiment with MCF7 breast and with COLO 205 colon was > 25 µM in each case.
For `Cc1ccc2c(C)c3c(ccc4ccccc43)c[n+]2c1`, the GI50 with HT29 colon is 33.5 µM; in the experiment with HCC-2998 colon it was 8.06 µM; in the experiment on HCT-116 colon, 17.3 µM; with MDA-MB-231 breast, 13.5 µM; in the experiment with SR leukemia it was 3.75 µM; in the experiment with NCI/ADR-RES ovarian, > 100 µM. Also, the GI50 in the experiment on SK-MEL-28 melanoma is 4.68 µM; with OVCAR-8 ovarian, 6.35 µM; with MCF7 breast, 0.629 µM; in the experiment with COLO 205 colon it was 11 µM. Further, the TGI is > 100 µM in the experiment on HT29 colon; 25.5 µM in the experiment on HCC-2998 colon; 78.7 µM in the experiment with HCT-116 colon; 46.2 µM with MDA-MB-231 breast; 22.9 µM in the experiment on SR leukemia; > 100 µM with NCI/ADR-RES ovarian. Moreover, the TGI with SK-MEL-28 melanoma stood at 18.4 µM; in the experiment with OVCAR-8 ovarian it was 25.4 µM; with MCF7 breast, 25.9 µM; with COLO 205 colon, 24.7 µM.
Turning to `Cc1ccc(CN2CCC(C(=O)Nc3ccc(-c4cc5ccccc5[nH]4)cc3)CC2)o1`, the GI50 was 94.2 µM in the experiment with HT29 colon; > 100 µM with HCC-2998 colon; > 100 µM with HCT-116 colon; > 100 µM with MDA-MB-231 breast; 4.3 µM in the experiment on SR leukemia; > 100 µM in the experiment on NCI/ADR-RES ovarian. In addition, the GI50 in the experiment on SK-MEL-28 melanoma was 88.9 µM; in the experiment on OVCAR-8 ovarian, > 100 µM; with MCF7 breast it was > 100 µM; with COLO 205 colon, 71 µM. Moreover, the TGI with HT29 colon, in the experiment on HCC-2998 colon, with HCT-116 colon, in the experiment with MDA-MB-231 breast, with SR leukemia and in the experiment on NCI/ADR-RES ovarian was > 100 µM throughout. For the same molecule, the TGI with SK-MEL-28 melanoma, in the experiment with OVCAR-8 ovarian, in the experiment with MCF7 breast and in the experiment with COLO 205 colon was > 100 µM each time.
Take `CN1CCN(C2=NCCO2)CC1`: the TGI in the experiment with HT29 colon, in the experiment on HCC-2998 colon, in the experiment on HCT-116 colon, in the experiment on MDA-MB-231 breast, with SR leukemia and in the experiment with NCI/ADR-RES ovarian was > 100 µM each time. Besides, the TGI with SK-MEL-28 melanoma, in the experiment on OVCAR-8 ovarian, with MCF7 breast and with COLO 205 colon was > 100 µM throughout.
Turning to `Cc1ccnc2c1ccc1c(C)ccnc12`, the GI50 with HT29 colon is 0.491 µM; with HCC-2998 colon, 0.381 µM; in the experiment with HCT-116 colon it was 0.418 µM; in the experiment with MDA-MB-231 breast it was 0.673 µM; with SR leukemia, 0.382 µM; in the experiment with NCI/ADR-RES ovarian, 0.204 µM. For the same molecule, the GI50 in the experiment with SK-MEL-28 melanoma is 0.491 µM; with OVCAR-8 ovarian it was 0.397 µM; with MCF7 breast, 0.343 µM; in the experiment with COLO 205 colon, 0.568 µM. For the same molecule, the TGI in the experiment with HT29 colon is 12.6 µM; in the experiment with HCC-2998 colon, 15.1 µM; in the experiment with HCT-116 colon, 13 µM; with MDA-MB-231 breast it was 21.3 µM; with SR leukemia, > 100 µM; with NCI/ADR-RES ovarian, 1.79 µM. Further, the TGI with SK-MEL-28 melanoma came to 14.2 µM; in the experiment with OVCAR-8 ovarian, 14.1 µM; in the experiment with MCF7 breast, 12.4 µM; in the experiment on COLO 205 colon, 13 µM.
Regarding `O=C(Nc1ccc(-n2ccc3c(NC(=O)c4ccccc4)nccc32)cc1)c1ccc(Cl)c(C(F)(F)F)c1`, the GI50 in the experiment on HT29 colon is 0.183 µM; with HCC-2998 colon it was 1.6 µM; with HCT-116 colon it was 0.0824 µM; in the experiment with MDA-MB-231 breast, 5.09 µM; in the experiment on SR leukemia, 0.0545 µM; in the experiment with NCI/ADR-RES ovarian it was 0.96 µM. The GI50 in the experiment with SK-MEL-28 melanoma is 4.99 µM; with OVCAR-8 ovarian, 0.528 µM; in the experiment with MCF7 breast, 0.288 µM; in the experiment on COLO 205 colon, 1.83 µM. The TGI was 6.31 µM with HT29 colon; 10.4 µM with HCC-2998 colon; 0.989 µM with HCT-116 colon; 15 µM in the experiment on MDA-MB-231 breast; > 12.7 µM in the experiment with SR leukemia; 15.2 µM in the experiment on NCI/ADR-RES ovarian. For the same molecule, the TGI in the experiment on SK-MEL-28 melanoma was 14.1 µM; in the experiment on OVCAR-8 ovarian, 15.9 µM; in the experiment on MCF7 breast, 1.24 µM; with COLO 205 colon it was 11 µM.
In the case of `COc1cccc(-c2cc(-c3cccc(NS(C)(=O)=O)c3)nc(N)c2C#N)c1O`, the GI50 with HT29 colon is 0.0924 µM; with HCC-2998 colon it was 0.328 µM; in the experiment on HCT-116 colon, 0.0783 µM; in the experiment on MDA-MB-231 breast, 0.815 µM; in the experiment with SR leukemia it was 0.0562 µM; with NCI/ADR-RES ovarian, 0.154 µM. Also, the GI50 in the experiment on SK-MEL-28 melanoma was 0.571 µM; in the experiment on OVCAR-8 ovarian, 0.351 µM; in the experiment with MCF7 breast, 0.279 µM; in the experiment on COLO 205 colon it was 0.128 µM. Further, the TGI is > 27.1 µM with HCC-2998 colon; > 100 µM in the experiment with HCT-116 colon; > 100 µM in the experiment on MDA-MB-231 breast; > 100 µM with SR leukemia; 2.34 µM in the experiment on NCI/ADR-RES ovarian; > 100 µM in the experiment with SK-MEL-28 melanoma. For the same molecule, the TGI with OVCAR-8 ovarian is > 100 µM; in the experiment with MCF7 breast, > 100 µM; in the experiment with COLO 205 colon it was 1.91 µM.
As to `CN(C)c1ccc(/C=C\C2=[N+](C)c3ccccc3C2(C)C)cc1`, the GI50 is 0.309 µM in the experiment on HT29 colon; 1.22 µM in the experiment with HCC-2998 colon; 0.32 µM with HCT-116 colon; 2.12 µM in the experiment on MDA-MB-231 breast; 28.5 µM in the experiment with SR leukemia; 10.6 µM with NCI/ADR-RES ovarian. Also, the GI50 with SK-MEL-28 melanoma was 0.51 µM; with OVCAR-8 ovarian, 0.614 µM; with MCF7 breast it was 0.455 µM; in the experiment on COLO 205 colon, 0.354 µM. The TGI with HCC-2998 colon was 12.9 µM; in the experiment on HCT-116 colon, > 32.1 µM; with MDA-MB-231 breast it was 18.8 µM; in the experiment with SR leukemia, > 100 µM; in the experiment with NCI/ADR-RES ovarian, > 61.6 µM; in the experiment with SK-MEL-28 melanoma it was 21.5 µM. Moreover, the TGI in the experiment on OVCAR-8 ovarian is > 41.1 µM; in the experiment with MCF7 breast, 30.7 µM; in the experiment with COLO 205 colon, 1.65 µM.
For the molecule `O=C(Nc1ccc(F)cc1)Nc1ccc(Cl)c([N+](=O)[O-])c1`, the GI50 is 3.2 µM with HT29 colon; 3.71 µM in the experiment with HCC-2998 colon; 3.07 µM with HCT-116 colon; 2.54 µM in the experiment on MDA-MB-231 breast; 3.41 µM in the experiment on SR leukemia; 2.6 µM in the experiment on NCI/ADR-RES ovarian. The GI50 was 3.77 µM in the experiment with SK-MEL-28 melanoma, 2.98 µM with OVCAR-8 ovarian, 2.66 µM in the experiment on MCF7 breast and 2.48 µM in the experiment on COLO 205 colon. Moreover, the TGI in the experiment on HT29 colon was 12.4 µM; with HCC-2998 colon, 14.3 µM; in the experiment with HCT-116 colon, 11.8 µM; in the experiment with MDA-MB-231 breast it was 6.46 µM; in the experiment on SR leukemia it was > 100 µM; with NCI/ADR-RES ovarian it was 10.3 µM. Moreover, the TGI is 14.2 µM in the experiment on SK-MEL-28 melanoma, 15.1 µM in the experiment on OVCAR-8 ovarian, 11.9 µM with MCF7 breast and 6.31 µM in the experiment on COLO 205 colon.
